# Measured values from patent US7060477B2, “Epoxide hydrolases of aspergillus origin” (Centre National de la Recherche Scientifique, priority 1999, dated 2006).
# Like-named read-outs stand apart in the source and are kept apart here.
# Assays:
# [1] = tested on: epoxide hydrolase from Aspergillus niger; test: Effect of selective reagents and co-solvents on epoxide hydrolase activity (pNSO as substrate, diol formed by HPLC); type: biochemical; settings: for effect of co-solvent on the activity of epoxide hydrolase (opening of the epoxide): organic co-solvent for dissolving the substrate
# Experimental: (§1) Add 50 μL of the preparation containing the enzyme to 410 μL of 0.1 M sodium phosphate buffer pH 7.0 (buffer B) and pre-incubate the mixture at 35° C. for 2 min. Then add 40 μL of a 50 mM solution of racemic pNSO in DMF (final pNSO concentration: 4 mM).
# (§2) After 10 min of incubation, stop the reaction by adding 1 mL of dichloromethane. Stir the mixture vigorously so as to extract both the substrate and the diol produced. The quantity of diol formed is determined after separation on a column of silica by HPLC (high-pressure liquid chromatography) (Waters Associates, USA) as described previously (Nellaiah et al. 1996).
# One unit of epoxide hydrolase represents the quantity of enzyme that catalyses the formation of one μmol of diol per minute in the above conditions. After incubation with raw extracts, the quantity of diol formed increases linearly with time for at least 30 min, and the reaction rate is proportional to the concentration of the enzyme in the range of 0.01 to 1.2 units (Nellaiah et al., 1996).
# [2] = Hydrolysis of pNSO by the purified EH: pH/temperature profile, enantioselectivity, regioselectivity; type: biochemical, Aspergillus niger; parameters: activation energy: unit not given here
# Experimental: as §1, §2
# The incubations with H2[^18O] are carried out in 1 mL flasks containing 180 μL of H2[^18O] buffer B, 20 μL of the purified epoxide hydrolase and 20 μL of substrate (50 mM in acetonitrile). After 1.5 h of incubation at 25° C. with magnetic stirring (500 rpm) the substrate that remains and the product formed are extracted with 2 mL of dichloromethane. The diol is purified by analytical chromatography on silica (eluent: diethylether). 2 μL of samples are analysed by gas chromatography/mass spectrometry (GC/MS). The diol that remains is converted to the corresponding acetonide by reaction with […] in the presence of p-toluene sulphonic acid. The acetonide is analysed by GC/MS as already described by Audier et al., 1968.
# Reaction in a total volume of 5 mL is carried out at 25° C., with a substrate with a concentration of 4.3 mM with DMSO (20 vol.%) as co-solvent in a 0.1 M sodium phosphate buffer pH 8.0.
# The reaction is started by adding 13 U/L of the purified enzyme. Samples are taken every 30 minutes for quantification of the concentrations of the substrate and of product by HPLC using a reversed-phase column (Nellaiah et al., 1996) and for quantification of the enantiomeric excess of the epoxide and of the diol by gas-phase chromatography (Nellaiah et al., 1996).
# [3] = Isoelectric point by electrofocusing; type: physicochemical, Aspergillus niger; settings: pH gradient 3 to 9, silver nitrate staining
# Experimental: SDS-PAGE electrophoresis is carried out on a plate with thickness of 1 mm containing a resolving gel (10% of acrylamide) and a concentrating gel (4% of acrylamide) at pH 8.8 in the presence of 0.1% of sodium dodecyl sulphate (SDS) (Laemmli, 1970). The samples are dissolved in a Tris-HCl buffer (62.5 mM, […]) containing 1% (w/v) of SDS, 10% (v/v) of glycerol and 2% (v/v) of β-mercaptoethanol, and are heated at 100° C. for 2 minutes. The proteins are stained with 0.1% (w/v) of Coomassie blue. Migrations on non-denaturing PAGE gels were effected in the same way except that no β-mercaptoethanol was added to the resolving buffer, and that the samples were not heated. Electrofocusing was carried out with a pH gradient of 3–9 by means of the Pharmacia LKB “Phastsystem” system and standard Pharmacia procedures. The proteins were stained with silver nitrate.
# [4] = Enzymatic activity of recombinant epoxide hydrolase and mutants (conversion of R enantiomer of para-nitrostyrene oxide to diol); type: biochemical, Aspergillus niger; settings: 4-nitro-styrene oxide hydrolysed
# Experimental: in the Ncol site that contains the starting codon of the pGEF+ vector in the context adapted to a ribosome binding site, upstream of the promoter of the RNA polymerase T7. The resulting plasmid is called pGEF II hereinafter. The PCR fragment AfIII/Eco RI of the EH of Aspergillus is ligated in the Ncol/Eco RI site of pGEF II to produce the pGEF Asp EH″ expression construction. The E. coli strain BL21 (DE 3) (Novagen) is transformed with pGEF Asp EH and put in the LB medium at 30° C. In late exponential phase, induction of expression of the recombinant protein is effected by adding isopropyl-β-thiogalactoside (100 μM). After two hours, the bacteria are collected by centrifugation, resuspended in 0.02 volumes of culture of the STE buffer (Tris-HCl, 10 mM, sodium chloride 100 mM, ethylenediamine tetraacetic acid 1 mM, pH 7.4) and stored at −70° C. Enzymatic activity is determined by converting the R enantiomer of para-nitrostyrene oxide to the corresponding diol. The reaction is carried out at a substrate concentration of 880 μM in 500 μL STE at 37° C. for 30 min, in the presence of 10 μL of acetonitrile which is used as solvent of para-nitrostyrene oxide. […]
# The conversion substrate is quantified by adding 400 μL of supernatant to 800 μL of water and reading the optical density at 277 nm, with the molar extinction coefficient of the product being 9.1×10^3 M^−1 cm^−1. […]
# [5] = cited from earlier work
# [6] = purified EH of Aspergillus niger, pNSO substrate
molecule,measurement,setting,value
OCCS [β-mercaptoethanol],effect of selective reagent on the activity of the enzyme,[1]; [6],positive effect
CN(C)C=O [DMF],effect of co-solvent on the activity of epoxide hydrolase (opening of the epoxide),[1]; pNSO substrate,strongest activities
O=C(OO)c1cccc(Cl)c1 [meta-chloroperbenzoic acid],effect of selective reagent on the activity of the enzyme,[1]; [6],strongly inhibit
OO [hydrogen peroxide],effect of selective reagent on the activity of the enzyme,[1]; [6],strongly inhibit
[Cl][Hg][Cl] [HgCl2],effect of selective reagent on the activity of the enzyme,[1]; [6],strong inactivation
NC(=O)CI [iodoacetamide],effect of selective reagent on the activity of the enzyme,[1]; [6],strong inactivation
CC(C)=O [acetone],effect of co-solvent on the activity of epoxide hydrolase (opening of the epoxide),[1]; pNSO substrate,strongest activities
phenylmethane sulphonyl chloride [PMSF],effect of selective reagent on the activity of the enzyme,[1]; [6],no effect
C1CCOC1 [THF],effect of co-solvent on the activity of epoxide hydrolase (opening of the epoxide),[1]; pNSO substrate,low activity
N[C@@H](CS)C(=O)O [cysteine],effect of selective reagent on the activity of the enzyme,[1]; [6],positive effect
O=C(O)CN(CCN(CC(=O)O)CC(=O)O)CC(=O)O [EDTA],effect of selective reagent on the activity of the enzyme,[1],no effect
O=C([O-])c1cc[c]([Hg][OH])cc1 [4-hydroxy-mercuribenzoate],effect of selective reagent on the activity of the enzyme,[1]; [6],strong inactivation
"EH from Aspergillus niger: fungal epoxide hydrolase represented by SEQ ID NO: 2, purified from Aspergillus niger LCP521 or recombinant in E. coli (protein, Aspergillus niger) MSAPFAKFPSSASISPNPFTVSIPDEQLDDLKTLVRLSKIAPPTYESLQADGRFGITSEWLTTMREKWLSEFDWRPFEARLNSFPQFTTEIEGLTIHFAALFSEREDAVPIALLHGWPGSFVEFYPILQLFREEYTPETLPFHLVVPSLPGYTFSSGPPLDKDFGLMDNARVVDQLMKDLGFGSGYIIQGGDIGSFVGRLLGVGFDACKAVHLNLCAMRAPPEGPSIESLSAAEKEGIARMEKFMTDGLAYAMEHSTRPSTIGHVLSSSPIALLAWIGEKYLQWVDKPLPSETILEMVSLYWLTESFPRAIHTYRETTPTASAPNGATMLQKELYIHKPFGFSFFPKDLCPVPRSWIATTGNLVFFRDHAEGGHFAALERPRELKTDLTAFVEQVWQK",pH of maximum activity,[2],7 pH
same,temperature of maximum activity,[2],40 °C
same,regioselectivity of the reaction,"[2]; for the 2 carbon, pNSO",97%
same,activation energy,[2]; from 2 to 40° C.,27
same,ratio of the specific constant (kcat/Km): initial rate of hydrolysis of (R) enantiomer versus (S) enantiomer,[2]; starting from racemic pNSO,55 times
same,isoelectric point,[3],4.5
same,specific activity,[4],100 μmol per minute and milligram
"rat microsomal epoxide hydrolase (mEH): rat microsomal epoxide hydrolase, literature comparison enzyme (protein, UniProt P07687 1-455, looked up) Epoxide hydrolase 1: MWLELVLASLLGFVIYWFVSRDKEETLPLGDGWWGPGSKPSAKEDESIRPFKVETSDEEIKDLHQRIDRFRASPPLEGSRFHYGFNSNYMKKVVSYWRNEFDWRKQVEILNQYPHFKTKIEGLDIHFIHVKPPQLPSGRTPKPLLMVHGWPGSFYEFYKIIPLLTDPKSHGLSDEHVFEVICPSIPGYGYSEASSKKGLNSVATARIFYKLMTRLGFQKFYIQGGDWGSLICTNMAQMVPNHVKGLHLNMAFISRSFYTMTPLLGQRFGRFLGYTEKDIELLYPYKEKVFYSIMRESGYLHIQATKPDTVGCALNDSPVGLAAYILEKFSTWTKSEYRELEDGGLERKFSLDDLLVNIMIYWTTGTIVSSQRYYKENLGQGIMVHKHEGMKVFVPTGFSAFPSELLHAPEKWVKVKYPKLISYSYMERGGHFAAFEEPKLLAQDIRKFVSLAELQ",conversion number increased by a factor,[5]; on replacing Glu^404 of the charge relay system with aspartic acid,30
same,specific activity,[5]; styrene oxide and benzo[α]pyrene oxide,about 500 nmol converted per minute and milligram of pure enzyme
